Reference: US20100305213A1, “TREATMENT OF HEART DISEASE USING BETA-BLOCKERS” (Bayer Animal Health GmbH, priority 2007, published 2010)
Structures can show the parent of a compound that is named as a salt.

Experiments:
[1] = tested on: dogs with pacing-induced heart failure; assay type: in vivo
Protocol: A study was conducted with two groups of conscious dogs with pacing-induced heart failure to determine the tolerance and potential effects of different doses of bisoprolol fumarate. […] ECG (PQ, QRS, RR, QT, QTcF, and QTcV intervals), echocardiography (left ventricular shortening fraction (LVSF) and systemic arterial blood pressure (SBP, DBP, MAP and pulse pressure) were monitored in the two groups. Heart failure was produced by rapid ventricular pacing to reduce left ventricular shortening fraction (LVSF) greater than 15% from baseline.
In the first group, the conservative up-titration study, the dogs were treated with weekly increasing oral doses of 0.005, 0.01, 0.03, 0.05 and 0.1 mg/kg bisoprolol fumarate. In the second group, the aggressive up-titration study, the dogs were treated with weekly increasing doses of 0.01, 0.05, 0.1, 0.5 and 1 mg/kg bisoprolol fumarate on top of a dose of 0.5 mg/kg of enalapril, 4 mg/kg of furosemide, and 0.003 mg/kg of digoxin. These two groups were compared to a placebo group that was treated with the same doses of the standard heart failure therapy (enalapril, furosemide and digoxin) alone.

[2] = tested on: isolated ventricular myocytes; experiment: Action potentials in ventricular myocytes isolated ex vivo after 5 weeks of treatment (perforated whole cell patch clamp); set-up: species or system dog; conditions: for APD50 compared to the placebo-treated heart failure group / APD90 compared to normal controls / heart failure induced prolongation of the APD90: 0.5 and 1 Hz
From the text: After altogether 5 weeks of treatment the dogs were anaesthetized according to standard veterinary procedures and ex vivo ventricular myocytes were directly isolated from the mid-lateral left ventricular free wall using an isolation procedure described by Kubalova et al., which results in isolation of myocytes from the midmyocardial region. Afterwards the animals were humanely euthanized. Recordings of single cell action potentials and K+ currents were made. See Kubalova et al., Abnormal intrastore calcium signaling in chronic heart failure, Proc Nat Acad Sci 2005; 102: 14104-14109. For measurement of the action potentials myocytes were placed in a laminin coated cell chamber and superfused with a bath solution. Only quiescent myocytes with sharp margins and clear striations were used for the electrophysiological study. Borosilicate glass micropipettes were filled with a pipette solution that was pH adjusted to 7.2. Perforated whole cell patch clamp was used to minimize alterations in the intracellular milieu. Action Potentials (APs) were recorded with the perforated whole cell patch techniques. Action potentials were recorded in isolated ventricular myocytes, which were characterized in the standard manner as the durations to 50% and 90% of repolarization. APs were measured as the average of the last 10 (steady-state) APs, obtained during a train of twenty five APs at each stimulation rate. An average of 2-3 myocytes was measured from each heart failure dog. Action Potentials were recorded in four groups. The following numbers of recordings were obtained and used in the analyzed data (number (n) indicates the number of myocytes): Control (CTRL, untreated, healthy dogs) (n=10) HF-placebo (placebo-treated dogs in heart failure (HF-PL)) (n=17) HF-C-Up bisoprolol, according to conservative up-titration bisoprolol treated dogs in heart failure (n=13) HF-A-Up bisoprolol, according to aggressive up-titration bisoprolol treated dogs in heart failure (n=15) Resting membrane potential was measured at 0.5 Hz and 1 Hz to bracket the physiologic range of resting heart rates (FIG. 1).

[3] = tested on: transient outward K+ current (Ito); experiment: Transient outward K+ current recordings in isolated ventricular myocytes of treated dogs; assay type: in vivo, dog
From the text: (§1) After altogether 5 weeks of treatment the dogs were anaesthetized according to standard veterinary procedures and ex vivo ventricular myocytes were directly isolated from the mid-lateral left ventricular free wall using an isolation procedure described by Kubalova et al., which results in isolation of myocytes from the midmyocardial region. Afterwards the animals were humanely euthanized. Recordings of single cell action potentials and K+ currents were made. See Kubalova et al., Abnormal intrastore calcium signaling in chronic heart failure, Proc Nat Acad Sci 2005; 102: 14104-14109. There are two K+ currents which are expected to modulate the resting membrane potential and the action potential duration, and are known to be altered during heart failure, the inward and the outward K+ currents. The transient outward K+ current, (Ito) was recorded in all four groups and data was recorded and analyzed.

[4] = tested on: inward rectifier K+ current (IK1); experiment: Inward rectifier K+ current recordings in isolated ventricular myocytes of treated dogs; assay type: in vivo, dog
From the text: as §1, with “The inward rectifier K+ current (IK1) is the primary determinant of the resting membrane potential (inward current) and modulates the final phase of repolarization (outward current). Reductions in inward current result in depolarization of the resting potential, while reductions in” for “The transient”, “outward current can contribute to action potential duration prolongation. IK1” for “outward K+ current, (Ito)”, “in each of the” for “in all”, “four groups,” for “four groups and”, “analyzed. The peak outward K+ current was recorded in each of the four groups (FIG. 5 bottom), data was recorded and analyzed.” for “analyzed.”

[5] = aggressive up-titration (HF-A-Up)
[6] = conservative up-titration (HF-C-Up)

What does the source list for `CC(C)NCC(O)COc1ccc(COCCOC(C)C)cc1` (stereo not drawn) [bisoprolol fumarate]?
tolerance ([1]; dog, in vivo, po): well tolerated; cardioselective β-blockade effect (prolongation of PQ interval and reduction of heart rate) ([1]; doses used in both up-titration groups, dogs with heart failure): near to maximum cardioselective β-blockade effect; APD50 compared to normal control myocytes [2, 5]: did not differ; APD50 compared to the placebo-treated heart failure group [2, 5]: statistically significant reduction; APD90 compared to normal controls [2, 5]: did not differ; heart failure induced prolongation of the APD90 [2, 5]: significantly attenuated; APD50 compared to normal control myocytes [2, 6]: did not differ; APD50 compared to the placebo-treated heart failure group [2, 6]: statistically significant reduction; APD90 compared to normal controls [2, 6]: did not differ; heart failure induced prolongation of the APD90 [2, 6]: significantly attenuated; HF-induced changes in the action potential durations (particularly APD90 prolongation) ([2]; summary, both conservative and aggressive up-titration dosing regimens, physiologically relevant heart rates): significantly attenuated and even reversed to the physiological normal; effects of heart failure on Ito ([3]; aggressive up-titration protocol (HF-A-Up Bis)): did not alter; heart failure induced reductions in Ito ([3]; conservative up-titration protocol (HF-C-Up Bis), at the two highest test potentials (+40 and +50 mV)): significantly attenuated; inward IK1 current conductance, difference between the groups ([4]; all four groups): no difference; peak outward IK1 current ([4]; conservative up-titration (HF-C-Up) relative to placebo (HF PL) and HF-A-Up): increased
